This note sets out measurements from publication PMC5218480 (PLoS ONE, 2017).

The test system of the assay is MV-4-11 cells. The experiment in a line: Gene expression microarray analysis (Affymetrix PrimeView) and GSEA. The conditions noted are these: MV-4-11 cells, 48 hours. The arrangement: RFU PODN (11730768_x_at) / Fold change /veh PODN (11730768_x_at) / RFU LINC00158 (11744669_a_at) / Fold change /veh LINC00158 (11744669_a_at) / RFU DUSP10 (11751237_a_at) / Fold change /veh DUSP10 (11751237_a_at) / RFU ID3 (11757404_x_at) / Fold change /veh ID3 (11757404_x_at) / RFU PLEKHG5 (11737974_s_at) / Fold change /veh PLEKHG5 (11737974_s_at) / RFU LRRC4B (11730491_at) / Fold change /veh LRRC4B (11730491_at) / RFU GIMAP4 (11747438_a_at) / Fold change /veh GIMAP4 (11747438_a_at) / RFU KRT8 (11758183_x_at) / Fold change /veh KRT8 (11758183_x_at) / RFU CNN1 (11734310_a_at) / Fold change /veh CNN1 (11734310_a_at) / RFU VPS37D (11726825_at) / Fold change /veh VPS37D (11726825_at) / RFU C10orf10 (11716522_x_at) / Fold change /veh C10orf10 (11716522_x_at) / RFU KIR2DL2 /// KIR2DL4 /// KIR2DL5A /// KIR2DL5B /// KIR2DS1 /// KIR2DS2 /// KIR2DS3 /// KIR2DS4 /// KIR3DL3 /// KIR3DL3 /// KIR3DS1 (11738374_at) / Fold change /veh KIR2DL2 /// KIR2DL4 /// KIR2DL5A /// KIR2DL5B /// KIR2DS1 /// KIR2DS2 /// KIR2DS3 /// KIR2DS4 /// KIR3DL3 /// KIR3DL3 /// KIR3DS1 (11738374_at) / RFU C1QL1 (11718748_at) / Fold change /veh C1QL1 (11718748_at) / RFU TMPRSS4 (11747572_a_at) / Fold change /veh TMPRSS4 (11747572_a_at) / RFU HAMP (11756126_x_at) / Fold change /veh HAMP (11756126_x_at) / RFU RNFT2 (11725882_a_at) / Fold change /veh RNFT2 (11725882_a_at) / RFU NR4A2 (11747474_a_at) / Fold change /veh NR4A2 (11747474_a_at) / RFU ABCC12 (11746883_a_at) / Fold change /veh ABCC12 (11746883_a_at) / RFU TMEM136 (11760407_x_at) / Fold change /veh TMEM136 (11760407_x_at) / RFU CLDN22 /// WWC2 (11732394_at) / Fold change /veh CLDN22 /// WWC2 (11732394_at) / RFU HLA-DPB1 (11760878_x_at) / Fold change /veh HLA-DPB1 (11760878_x_at) / RFU SPINT1 (11716480_a_at) / Fold change /veh SPINT1 (11716480_a_at) / RFU GAP43 (11754022_s_at) / Fold change /veh GAP43 (11754022_s_at) / RFU A4GNT (11735810_at) / Fold change /veh A4GNT (11735810_at) / RFU PRB3 (11715151_x_at) / Fold change /veh PRB3 (11715151_x_at) / RFU TUBB4B (11761932_at) / Fold change /veh TUBB4B (11761932_at) / RFU CAPN14 (11732068_a_at) / Fold change /veh CAPN14 (11732068_a_at) / RFU TMCC2 (11721928_a_at) / Fold change /veh TMCC2 (11721928_a_at) / RFU IRGQ (11745062_a_at) / Fold change /veh IRGQ (11745062_a_at) / RFU FAM174B (11720279_a_at) / Fold change /veh FAM174B (11720279_a_at) / RFU TMPRSS4 (11748680_a_at) / Fold change /veh TMPRSS4 (11748680_a_at) / RFU FAM212B (11763350_a_at) / Fold change /veh FAM212B (11763350_a_at) / RFU PLEKHG5 (11743358_a_at) / Fold change /veh PLEKHG5 (11743358_a_at) / RFU ZSCAN30 (11745921_a_at) / Fold change /veh ZSCAN30 (11745921_a_at) / RFU CMKLR1 (11741424_a_at) / Fold change /veh CMKLR1 (11741424_a_at) / RFU LOC101060620 /// MAPK8IP1 (11723275_at) / Fold change /veh LOC101060620 /// MAPK8IP1 (11723275_at) / RFU SPTSSB (11747773_x_at) / Fold change /veh SPTSSB (11747773_x_at) / RFU PRSS12 (11739890_at) / Fold change /veh PRSS12 (11739890_at) / RFU BIN1 (11741810_x_at) / Fold change /veh BIN1 (11741810_x_at) / RFU WNT11 (11732464_a_at) / Fold change /veh WNT11 (11732464_a_at) / RFU C10orf10 (11716521_a_at) / Fold change /veh C10orf10 (11716521_a_at) / RFU C5orf56 (11738089_at) / Fold change /veh C5orf56 (11738089_at) / RFU CYB561 (11721691_x_at) / Fold change /veh CYB561 (11721691_x_at) / RFU ANKRD19P (11752326_a_at) / Fold change /veh ANKRD19P (11752326_a_at) / RFU OR2T12 /// OR2T33 /// OR2T8 (11738714_s_at) / Fold change /veh OR2T12 /// OR2T33 /// OR2T8 (11738714_s_at) / RFU VCAN (11748164_a_at) / Fold change /veh VCAN (11748164_a_at) / RFU JSRP1 (11732532_at) / Fold change /veh JSRP1 (11732532_at) / RFU KRTAP10-11 (11738290_x_at) / Fold change /veh KRTAP10-11 (11738290_x_at) / RFU MYO3A (11730013_a_at) / Fold change /veh MYO3A (11730013_a_at) / RFU EBF3 (11725865_a_at) / Fold change /veh EBF3 (11725865_a_at) / RFU CAMK2N1 (11719241_x_at) / Fold change /veh CAMK2N1 (11719241_x_at) / RFU C5orf56 (11738088_a_at) / Fold change /veh C5orf56 (11738088_a_at) / RFU OLFML3 (11715873_a_at) / Fold change /veh OLFML3 (11715873_a_at) / RFU LOC100653217 /// NTM (11731650_a_at) / Fold change /veh LOC100653217 /// NTM (11731650_a_at) / RFU MAPK11 (11762145_a_at) / Fold change /veh MAPK11 (11762145_a_at) / RFU FIZ1 (11724087_x_at) / Fold change /veh FIZ1 (11724087_x_at) / RFU OASL (11726364_x_at) / Fold change /veh OASL (11726364_x_at) / RFU SOX15 (11748057_x_at) / Fold change /veh SOX15 (11748057_x_at) / RFU CD79A (11719716_a_at) / Fold change /veh CD79A (11719716_a_at) / RFU HIST1H1D (11736915_at) / Fold change /veh HIST1H1D (11736915_at) / RFU CASKIN2 (11723855_a_at) / Fold change /veh CASKIN2 (11723855_a_at) / RFU LOC730098 (11760151_x_at) / Fold change /veh LOC730098 (11760151_x_at) / RFU OR4N2 (11742367_at) / Fold change /veh OR4N2 (11742367_at) / RFU PRRT2 (11749266_a_at) / Fold change /veh PRRT2 (11749266_a_at) / RFU SNX32 (11753110_a_at) / Fold change /veh SNX32 (11753110_a_at) / RFU CDHR5 (11726645_a_at) / Fold change /veh CDHR5 (11726645_a_at) / RFU RCAN1 (11760418_a_at) / Fold change /veh RCAN1 (11760418_a_at) / RFU FAM167A (11723789_a_at) / Fold change /veh FAM167A (11723789_a_at) / RFU FAM26E (11764081_at) / Fold change /veh FAM26E (11764081_at) / RFU ISYNA1 (11749810_s_at) / Fold change /veh ISYNA1 (11749810_s_at) / RFU ACY1 (11761880_at) / Fold change /veh ACY1 (11761880_at) / RFU 11764098_at / Fold change /veh 11764098_at / RFU SAMD14 (11745864_x_at) / Fold change /veh SAMD14 (11745864_x_at) / RFU NPB (11741838_a_at) / Fold change /veh NPB (11741838_a_at) / RFU TMPRSS6 (11731388_a_at) / Fold change /veh TMPRSS6 (11731388_a_at) / RFU KRTAP10-2 (11738614_at) / Fold change /veh KRTAP10-2 (11738614_at) / RFU ARHGAP8 /// PRR5-ARHGAP8 (11727945_x_at) / Fold change /veh ARHGAP8 /// PRR5-ARHGAP8 (11727945_x_at) / RFU KRTAP5-7 /// NADSYN1 (11734609_at) / Fold change /veh KRTAP5-7 /// NADSYN1 (11734609_at) / RFU RASL12 (11751679_a_at) / Fold change /veh RASL12 (11751679_a_at) / RFU CDKN2B (11736163_a_at) / Fold change /veh CDKN2B (11736163_a_at) / RFU PRF1 (11729649_at) / Fold change /veh PRF1 (11729649_at) / RFU, ZNF638 /// ZNF638-IT1 / Fold change vs veh, ZNF638 /// ZNF638-IT1 / RFU, PANK3 / Fold change vs veh, PANK3 / RFU, SH3YL1 / Fold change vs veh, SH3YL1 / RFU, ZEB2 / Fold change vs veh, ZEB2 / RFU, NRIP1 / Fold change vs veh, NRIP1 / RFU, PTTG1IP / Fold change vs veh, PTTG1IP / RFU, CAPN2 / Fold change vs veh, CAPN2 / RFU, MED14 / Fold change vs veh, MED14 / RFU, SNORA58 / Fold change vs veh, SNORA58 / RFU, C1orf63 / Fold change vs veh, C1orf63 / RFU, LRRFIP1 / Fold change vs veh, LRRFIP1 / RFU, NDUFAF7 / Fold change vs veh, NDUFAF7 / RFU, SLC12A2 / Fold change vs veh, SLC12A2 / RFU, IBTK / Fold change vs veh, IBTK / RFU, ESF1 / Fold change vs veh, ESF1 / Fold change vs veh, TMEM50B / RFU, TAOK1 / Fold change vs veh, TAOK1 / RFU, ACBD3 / Fold change vs veh, ACBD3 / RFU, TMA16 / Fold change vs veh, TMA16 / RFU, RWDD3 / Fold change vs veh, RWDD3 / RFU, BCAT1 / Fold change vs veh, BCAT1 / RFU, EDEM3 / Fold change vs veh, EDEM3 / RFU, TMEM33 / Fold change vs veh, TMEM33 / RFU, WDR75 / Fold change vs veh, WDR75 / RFU, AHCTF1 / Fold change vs veh, AHCTF1 / RFU, TFRC / Fold change vs veh, TFRC / RFU, ZDHHC17 / Fold change vs veh, ZDHHC17 / RFU, NOM1 / Fold change vs veh, NOM1 / RFU, ARL8B / Fold change vs veh, ARL8B / RFU, ZBTB11 / Fold change vs veh, ZBTB11 / RFU, TAMM41 / Fold change vs veh, TAMM41 / RFU, KIAA1704 /// LOC100996395 / Fold change vs veh, KIAA1704 /// LOC100996395 / RFU, ING1 / Fold change vs veh, ING1 / RFU, TRMT61B / Fold change vs veh, TRMT61B / RFU, FUBP3 / Fold change vs veh, FUBP3 / RFU, TP53 / Fold change vs veh, TP53 / RFU, TNKS2 / Fold change vs veh, TNKS2 / RFU, ZFP14 / Fold change vs veh, ZFP14 / RFU, ACTR2 / Fold change vs veh, ACTR2 / RFU, PPP3R1 / Fold change vs veh, PPP3R1 / RFU, PIK3R1 / Fold change vs veh, PIK3R1 / RFU, HNRNPA1 / Fold change vs veh, HNRNPA1 / RFU, RNF170 / Fold change vs veh, RNF170 / RFU, ZNF28 / Fold change vs veh, ZNF28 / RFU, RNGTT / Fold change vs veh, RNGTT / RFU, OGT / Fold change vs veh, OGT / RFU, BRD1 / Fold change vs veh, BRD1 / RFU, MARS / Fold change vs veh, MARS / RFU, ZNF655 / Fold change vs veh, ZNF655 / RFU, FAHD1 / Fold change vs veh, FAHD1 / RFU, BDP1 / Fold change vs veh, BDP1 / RFU, LRRCC1 / Fold change vs veh, LRRCC1 / RFU, ARID1A / Fold change vs veh, ARID1A / RFU, ZNF146 / Fold change vs veh, ZNF146 / RFU, ZNF330 / Fold change vs veh, ZNF330 / RFU, GPN3 / Fold change vs veh, GPN3 / RFU, C9orf123 / Fold change vs veh, C9orf123 / RFU, N4BP2L2 / Fold change vs veh, N4BP2L2 / RFU, ARFIP1 / Fold change vs veh, ARFIP1 / RFU, FAM179B / Fold change vs veh, FAM179B / RFU, BCL10 / Fold change vs veh, BCL10 / RFU, UHRF1BP1L / Fold change vs veh, UHRF1BP1L / RFU, BET1 / Fold change vs veh, BET1 / RFU, CNOT2 / Fold change vs veh, CNOT2 / RFU, ZNF268 / Fold change vs veh, ZNF268 / Fold change vs veh, ZNF507 / RFU, DGCR2 / Fold change vs veh, DGCR2 / RFU, WDSUB1 / Fold change vs veh, WDSUB1 / Fold change vs veh, HSP90B1 /// MIR3652 / RFU, ADSS / Fold change vs veh, ADSS / RFU, GK / Fold change vs veh, GK / RFU, ZNF148 / Fold change vs veh, ZNF148 / RFU, TAF9 / Fold change vs veh, TAF9 / RFU, SLC1A5 / Fold change vs veh, SLC1A5 / RFU, SLMO2 / Fold change vs veh, SLMO2 / RFU, ABCC4 / Fold change vs veh, ABCC4 / RFU, LOC101060439 /// RAP1B / Fold change vs veh, LOC101060439 /// RAP1B / RFU, RFX7 / Fold change vs veh, RFX7 / RFU, GTPBP10 / Fold change vs veh, GTPBP10 / RFU, CNEP1R1 / Fold change vs veh, CNEP1R1 / RFU, BIVM-ERCC5 /// ERCC5 / Fold change vs veh, BIVM-ERCC5 /// ERCC5 / RFU, ILF3 / Fold change vs veh, ILF3 / RFU 11762660_at / Fold change /veh 11762660_at / RFU VCAN (11757783_s_at) / Fold change /veh VCAN (11757783_s_at) / RFU DDX43 (11728927_at) / Fold change /veh DDX43 (11728927_at) / RFU KRT8 (11758188_x_at) / Fold change /veh KRT8 (11758188_x_at) / RFU NKD1 (11759106_at) / Fold change /veh NKD1 (11759106_at) / RFU SRD5A1 (11742802_a_at) / Fold change /veh SRD5A1 (11742802_a_at) / RFU TPSAB1 /// TPSB2 (11721975_s_at) / Fold change /veh TPSAB1 /// TPSB2 (11721975_s_at) / RFU GSTM3 (11746129_a_at) / Fold change /veh GSTM3 (11746129_a_at) / RFU IL23R (11737362_x_at) / Fold change /veh IL23R (11737362_x_at) / RFU TMEM51 (11727254_a_at) / Fold change /veh TMEM51 (11727254_a_at) / RFU PIWIL2 (11732686_x_at) / Fold change /veh PIWIL2 (11732686_x_at) / RFU ORM1 (11744905_x_at) / Fold change /veh ORM1 (11744905_x_at) / RFU CCDC152 (11743942_at) / Fold change /veh CCDC152 (11743942_at) / RFU ECM1 (11717891_a_at) / Fold change /veh ECM1 (11717891_a_at) / RFU IL23R (11748794_a_at) / Fold change /veh IL23R (11748794_a_at) / RFU TNFAIP8L3 (11732012_x_at) / Fold change /veh TNFAIP8L3 (11732012_x_at) / RFU MBOAT4 (11741988_at) / Fold change /veh MBOAT4 (11741988_at) / RFU 11764193_at / Fold change /veh 11764193_at / RFU TMEM53 (11763286_at) / Fold change /veh TMEM53 (11763286_at) / RFU MAGEB2 (11727129_at) / Fold change /veh MAGEB2 (11727129_at) / RFU TMEM200A (11744735_a_at) / Fold change /veh TMEM200A (11744735_a_at) / RFU CCDC152 (11751479_a_at) / Fold change /veh CCDC152 (11751479_a_at) / RFU FAM211A (11726209_a_at) / Fold change /veh FAM211A (11726209_a_at) / RFU RGS16 (11746705_a_at) / Fold change /veh RGS16 (11746705_a_at) / RFU VCAN (11755009_s_at) / Fold change /veh VCAN (11755009_s_at) / RFU RHOB (11743442_s_at) / Fold change /veh RHOB (11743442_s_at) / RFU RGS16 (11720943_a_at) / Fold change /veh RGS16 (11720943_a_at) / RFU RGS16 (11720944_at) / Fold change /veh RGS16 (11720944_at) / RFU, VPS4B / Fold change vs veh, VPS4B / RFU, CREB1 / Fold change vs veh, CREB1 / RFU, DNAJC13 / Fold change vs veh, DNAJC13 / RFU, GNAQ / Fold change vs veh, GNAQ / RFU, CDK5R1 / Fold change vs veh, CDK5R1 / RFU, ZRANB3 / Fold change vs veh, ZRANB3 / RFU, CUL4A / Fold change vs veh, CUL4A / RFU, CCNY / Fold change vs veh, CCNY / RFU, UFL1 / Fold change vs veh, UFL1 / RFU, COG3 / Fold change vs veh, COG3 / RFU, DIAPH2 / Fold change vs veh, DIAPH2 / RFU, SKA2 / Fold change vs veh, SKA2 / RFU, AFF3 / Fold change vs veh, AFF3 / RFU, LMF1 / Fold change vs veh, LMF1 / RFU, IPO11 / Fold change vs veh, IPO11 / RFU, DFFB / Fold change vs veh, DFFB / RFU, FOXP1 / Fold change vs veh, FOXP1 / RFU, CARD8 / Fold change vs veh, CARD8 / RFU, STRN3 / Fold change vs veh, STRN3 / RFU, ADK / Fold change vs veh, ADK / RFU, RASSF2 / Fold change vs veh, RASSF2 / RFU, WIPF1 / Fold change vs veh, WIPF1 / RFU, LARP1B / Fold change vs veh, LARP1B / RFU, RASA1 / Fold change vs veh, RASA1 / RFU, RB1 / Fold change vs veh, RB1 / RFU, PPFIA1 / Fold change vs veh, PPFIA1 / RFU, MAT2A / Fold change vs veh, MAT2A / RFU, CCT5 / Fold change vs veh, CCT5 / RFU, WDR92 / Fold change vs veh, WDR92 / RFU, CUX1 / Fold change vs veh, CUX1 / RFU, TTC7A / Fold change vs veh, TTC7A / RFU, TMEM135 / Fold change vs veh, TMEM135 / RFU, DEPTOR / Fold change vs veh, DEPTOR / RFU, CPM / Fold change vs veh, CPM / RFU, DNAJB6 / Fold change vs veh, DNAJB6 / RFU, CACNA2D3 / Fold change vs veh, CACNA2D3 / RFU, DTX4 / Fold change vs veh, DTX4 / RFU, TFCP2 / Fold change vs veh, TFCP2 / RFU, GMCL1 /// GMCL1P1 / Fold change vs veh, GMCL1 /// GMCL1P1 / RFU, AEBP2 / Fold change vs veh, AEBP2 / RFU, SNHG1 /// SNORD22 /// SNORD25 /// SNORD26 /// SNORD27 /// SNORD28 /// SNORD29 /// SNORD31 / Fold change vs veh, SNHG1 /// SNORD22 /// SNORD25 /// SNORD26 /// SNORD27 /// SNORD28 /// SNORD29 /// SNORD31 / Fold change (Aza/veh), C12orf56 (ProbeSet 11735607_a_at) / Fold change (ACY-1035/veh), C12orf56 (ProbeSet 11735607_a_at) / Fold change (Aza/veh), FGFR1OP (ProbeSet 11751329_s_at) / Fold change (ACY-1035/veh), FGFR1OP (ProbeSet 11751329_s_at) / Fold change (Aza/veh), VPS36 (ProbeSet 11739960_a_at) / Fold change (ACY-1035/veh), VPS36 (ProbeSet 11739960_a_at) / RFU SYPL1 (11715823_x_at) / Fold change /veh SYPL1 (11715823_x_at) / RFU IGFBP7 (11715501_s_at) / Fold change /veh IGFBP7 (11715501_s_at) / RFU REEP3 (11722064_at) / Fold change /veh REEP3 (11722064_at) / RFU IGLL1 (11728026_x_at) / Fold change /veh IGLL1 (11728026_x_at): dose or concentration left out as unconfirmed. It is filed as cell-based, human.

For `Nc1ccc(-c2cccs2)cc1NC(=O)c1ccc2c(c1)cc(C1CC1)n2CCN1CCOCC1` [ACY-1035], the “Fold change /veh GAP43 (11754022_s_at)” value worked out at 0.88.
